Converted amounts (≈) assume the structure as drawn. The source made the active and inactive calls. No cut-off for these calls is given here.
Key:
[1] = Cmax in fasted Sprague-Dawley rat at 27 mg/kg, po by LC-MS/MS analysis; type: ADME, organism-based; conditions: in vivo
[2] = AUC (0 to t) in fasted Sprague-Dawley rat at 27 mg/kg, po by LC-MS/MS analysis; type: ADME, organism-based; conditions: in vivo
[3] = Cmax in fasted Sprague-Dawley rat at 16.5 mg/kg, po by LC-MS/MS analysis; type: ADME, organism-based; conditions: in vivo
[4] = AUC (0 to t) in fasted Sprague-Dawley rat at 16.5 mg/kg, po by LC-MS/MS analysis; type: ADME, organism-based; conditions: in vivo
[5] = Cmax in fasted Sprague-Dawley rat at 5 mg/kg, iv by LC-MS/MS analysis; type: ADME, organism-based; conditions: in vivo
[6] = AUC (0 to t) in fasted Sprague-Dawley rat at 5 mg/kg, iv by LC-MS/MS analysis; type: ADME, organism-based; conditions: in vivo
[7] = Cmax in fasted Sprague-Dawley rat at 10 mg/kg, po by LC-MS/MS analysis; type: ADME, organism-based; conditions: in vivo
[8] = AUC (0 to t) in fasted Sprague-Dawley rat at 10 mg/kg, po by LC-MS/MS analysis; type: ADME, organism-based; conditions: in vivo
[9] = Stability of compound at pH 1.5 assessed as change in purity at 1 mg/ml incubated for 4 hrs by HPLC analysis; type: physicochemical; conditions: buffer, pH 1.5, 4 h
[10] = Stability of compound at pH 1.5 assessed as change in purity at 1 mg/ml incubated for 12 hrs by HPLC analysis; type: physicochemical; conditions: buffer, pH 1.5, 12 h
[11] = Stability of compound at pH 1.5 assessed as change in purity at 1 mg/ml incubated for 24 hrs by HPLC analysis; type: physicochemical; conditions: buffer, pH 1.5, 24 h
[12] = Stability of compound at pH 4.0 assessed as change in purity at 1 mg/ml incubated for 4 hrs by HPLC analysis; type: physicochemical; conditions: buffer, pH 4, 4 h
[13] = Stability of compound at pH 4.0 assessed as change in purity at 1 mg/ml incubated for 12 hrs by HPLC analysis; type: physicochemical; conditions: buffer, pH 4, 12 h
[14] = Stability of compound at pH 4.0 assessed as change in purity at 1 mg/ml incubated for 24 hrs by HPLC analysis; type: physicochemical; conditions: buffer, pH 4, 24 h
[15] = Stability of compound at pH 6.8 assessed as change in purity at 1 mg/ml incubated for 4 hrs by HPLC analysis; type: physicochemical; conditions: buffer, pH 6.8, 4 h
[16] = Stability of compound at pH 6.8 assessed as change in purity at 1 mg/ml incubated for 12 hrs by HPLC analysis; type: physicochemical; conditions: buffer, pH 6.8, 12 h
[17] = Stability of compound at pH 6.8 assessed as change in purity at 1 mg/ml incubated for 24 hrs by HPLC analysis; type: physicochemical; conditions: buffer, pH 6.8, 24 h
[18] = Cmax in fasted Cynomolgus monkey at 2 mg/kg, iv by LC-MS/MS analysis; type: ADME, organism-based, Macaca fascicularis; conditions: in vivo
[19] = AUC (0 to t) in fasted Cynomolgus monkey at 2 mg/kg, iv by LC-MS/MS analysis; type: ADME, organism-based, Macaca fascicularis; conditions: in vivo
[20] = Half life in fasted Cynomolgus monkey at 2 mg/kg, iv by LC-MS/MS analysis; type: ADME, organism-based, Macaca fascicularis; conditions: in vivo
[21] = Cmax in fasted Cynomolgus monkey at 5 mg/kg, po by LC-MS/MS analysis; type: ADME, organism-based, Macaca fascicularis; conditions: in vivo
[22] = AUC (0 to t) in fasted Cynomolgus monkey at 5 mg/kg, po by LC-MS/MS analysis; type: ADME, organism-based, Macaca fascicularis; conditions: in vivo
[23] = Half life in fasted Cynomolgus monkey at 5 mg/kg, po by LC-MS/MS analysis; type: ADME, organism-based, Macaca fascicularis; conditions: in vivo
[24] = Oral bioavailability in fasted Cynomolgus monkey at 5 mg/kg by LC-MS/MS analysis; type: ADME, organism-based, Macaca fascicularis; conditions: in vivo
[25] = Stability in SGF assessed as compound degradation measured for 24 hrs by HPLC analysis; type: physicochemical; conditions: simulated gastric fluid (SGF), read-out: Drug degradation
[26] = Stability in SIF assessed as compound degradation measured for 24 hrs by HPLC analysis; type: physicochemical; conditions: simulated intestinal fluid (SIF), read-out: Drug degradation
[27] = Cmax in fasted Sprague-Dawley rat at 15.5 mg/kg, po by LC-MS/MS analysis; type: ADME, organism-based; conditions: in vivo
[28] = AUC (0 to t) in fasted Sprague-Dawley rat at 15.5 mg/kg, po by LC-MS/MS analysis; type: ADME, organism-based; conditions: in vivo
[29] = system: Mammarenavirus choriomeningitidis; assay: In vivo antiviral activity against LCMV infected in C57BL/6-Prf1tm1Sdz/J mouse assessed as improvement in body weight loss at 300 mg/kg, po qd treated for 7 days; type: functional, organism-based; conditions: time 7.0 day
[30] = system: Mammarenavirus choriomeningitidis; assay: In vivo antiviral activity against LCMV infected in C57BL/6-Prf1tm1Sdz/J mouse assessed as animal survival at 300 mg/kg, po qd treated for 7 days; type: functional, organism-based; conditions: time 7.0 day
[31] = system: Mammarenavirus choriomeningitidis; assay: In vivo antiviral activity against LCMV infected in C57BL/6-Prf1tm1Sdz/J mouse assessed as improvement in platelet count at 300 mg/kg, po qd treated for 7 days; type: functional, organism-based; conditions: time 7.0 day
[32] = system: Mammarenavirus choriomeningitidis; assay: In vivo antiviral activity against LCMV infected in C57BL/6-Prf1tm1Sdz/J mouse assessed as improvement in lymphocytes percentage at 300 mg/kg, po qd treated for 7 days; type: functional, organism-based; conditions: time 7.0 day
[33] = Cmax in fasted Sprague-Dawley rat at 25 mg/kg, po by LC-MS/MS analysis; type: ADME, organism-based; conditions: in vivo
[34] = AUC (0 to t) in fasted Sprague-Dawley rat at 25 mg/kg, po by LC-MS/MS analysis; type: ADME, organism-based; conditions: in vivo
[35] = Oral bioavailability in fasted Cynomolgus monkey administered orally by LC-MS/MS analysis; type: ADME, organism-based, Macaca fascicularis; conditions: in vivo
[36] = Cmax in fasted Sprague-Dawley rat at 21 mg/kg, po by LC-MS/MS analysis; type: ADME, organism-based; conditions: in vivo
[37] = AUC (0 to t) in fasted Sprague-Dawley rat at 21 mg/kg, po by LC-MS/MS analysis; type: ADME, organism-based; conditions: in vivo
[38] = Aqueous solubility of compound; type: physicochemical; conditions: aqueous medium
[39] = Half life in fasted Cynomolgus monkey administered orally by LC-MS/MS analysis; type: ADME, Macaca fascicularis; conditions: in vivo, route po

O=C(OCn1c(=O)ccn([C@@H]2O[C@](F)(COC(=O)c3cccnc3)[C@@H](OC(=O)c3cccnc3)[C@H]2OC(=O)c2cccnc2)c1=O)c1cccnc1
Cmax [1]: 708 ng/mL
AUC(0-t) [2]: 9080 ng·h/mL

CCOC(=O)OCn1c(=O)ccn([C@@H]2O[C@](F)(COC(=O)C(C)C)[C@@H](O)[C@H]2O)c1=O
Cmax [3]: 2440 ng/mL
AUC(0-t) [4]: 15800 ng·h/mL

O=c1ccn([C@@H]2O[C@](F)(CO)[C@@H](O)[C@H]2O)c(=O)[nH]1
Cmax [5]: 2900 ng/mL
AUC(0-t) [6]: 7810 ng·h/mL
Cmax [7]: 1740 ng/mL
AUC(0-t) [8]: 13000 ng·h/mL
Activity [9]: -27.9%
Activity [10]: -64.4%
Activity [11]: -86.9%
Activity [12]: -8.8%
Activity [13]: -24.9%
Activity [14]: -43.5%
Activity [15]: -18.1%
Activity [16]: -44.8%
Activity [17]: -67.1%
Cmax [18]: 2530 ng/mL
AUC(0-t) [19]: 4830 ng·h/mL
half-life [20]: 4.34 h
Cmax [21]: 2850 ng/mL
AUC(0-t) [22]: 11600 ng·h/mL
half-life [23]: 5.13 h
bioavailability [24]: 62.9%
degraded at 24 h [25]: > 80%
degraded at 24 h [26]: > 80%

CCOC(=O)n1c(=O)ccn([C@@H]2O[C@](F)(COC(=O)C(C)C)[C@@H](O)[C@H]2O)c1=O
Cmax [27]: 569 ng/mL
AUC(0-t) [28]: 4650 ng·h/mL

NC(=O)c1nc(F)cnc1O
Activity [29]: inactive
Activity [30]: inactive
Activity [31]: inactive
Activity [32]: inactive

CC(C)C(=O)OC[C@@]1(F)O[C@@H](n2ccc(=O)n(COC(=O)[C@@H]3CCCN3C)c2=O)[C@H](OC(=O)C(C)C)[C@@H]1OC(=O)C(C)C.Cl
Cmax [33]: 2150 ng/mL
AUC(0-t) [34]: 14200 ng·h/mL
Activity [9]: -1.5%
Activity [10]: -3.6%
Activity [11]: -7.6%
Activity [12]: -10.9%
Activity [13]: -29.8%
Activity [14]: -52.7%
Activity [15]: -62.9%
Activity [16]: -95%
Activity [17]: -95%
bioavailability [35]: 91%

CC(=O)O[C@H]1[C@H](n2ccc(=O)n(COC(=O)c3cccnc3)c2=O)O[C@](F)(COC(=O)C(C)C)[C@H]1OC(C)=O
Cmax [36]: 2190 ng/mL
AUC(0-t) [37]: 13500 ng·h/mL
Activity [9]: -2%
Activity [10]: -5.6%
Activity [11]: -10.4%
Activity [12]: -0.1%
Activity [13]: -0.1%
Activity [14]: -0.2%
Activity [15]: -6.7%
Activity [16]: -16.4%
Activity [17]: -31%
bioavailability [35]: 86.4%
solubility [38]: 410 µg/mL (≈ 743 µM)

CC(C)C(=O)OCn1c(=O)ccn([C@@H]2O[C@](F)(COC(=O)C(C)C)[C@@H](O)[C@H]2O)c1=O
Cmax [3]: 3140 ng/mL
AUC(0-t) [4]: 20100 ng·h/mL
Activity [9]: -2%
Activity [10]: -6%
Activity [11]: -11.2%
Activity [12]: -0.9%
Activity [13]: -1.8%
Activity [14]: -3%
Activity [15]: -1%
Activity [16]: -2.4%
Activity [17]: -4.1%
bioavailability [35]: 66.2%
half-life [39]: 6.84 h
